Assay results from US20060270727A1, “Small molecule therapeutics and uses therefor” (priority 2005, published 2006).
Read-outs that look alike come from different tables or passages of the source.

How the values were obtained:
[1] = system: sticky DNA in plasmid pRW4886, two tracts of (GAA)176; experiment: Sticky DNA disruption, EcoNI digestion and agarose gel; type: biochemical; details: 37° C., 1 hr
Description: Influence of Polyamides on Sticky DNA Conformation. Plasmid pRW4886, which contains two tracts of (GAA)176 (SEQ ID NO: ______) in a direct repeat orientation (Vetcher et al., 2002b, Id)., and forms sticky DNA, was treated with polyamides at concentrations of 0-50 μM at 37° C. for 1 hr. Restriction digestion with EcoNI following the polyamide incubation enabled visualization of the presence or absence of an EcoNI cleaved sticky DNA band that runs with decreased mobility compared to the linearized plasmid on 1% agarose gels. Quantitation was by densitometric analysis using Fluor Chem version 3.04 (Alpha Innotech Corp).
The capacity of sequence-specific polyamides to disrupt the intramolecular sticky DNA structure formed by GAA repeat tracts was investigated. Plasmids harboring the sticky DNA structure are visualized by gel electrophoresis after restriction endonuclease cleavage, by methods well known in the art. […] Plasmid pRW4886, which contains two tracts of (GAA)176 (SEQ ID NO: ______) in a direct repeat orientation (Vetcher et al., 2002b, Id.), was incubated with each of polyamides FA1, FA2, FA3 and FA4 at concentrations ranging from 0-50 μM. The polyamide-bound DNA was then digested with EcoNI and subjected to electrophoresis on 1% agarose gels to determine the amount of EcoNI cleaved sticky DNA retarded band present. Incubation of pRW4886 DNA with FA3 shifted the equilibrium from a maximum amount of sticky DNA to a complete loss of the EcoNI cleaved sticky DNA retarded band at a concentration of 50 nM. […] For FA1, a 1 μM concentration was needed to dissociate the DNA-DNA structure-forming region. […] Since sticky DNA inhibits transcription (Ohshima et al., Id.; Sakamoto et al., 2001, J. Biol. Chem. 276:27171-27177), and since the polyamides destabilize this conformation by shifting the structural equilibrium to duplex B-type DNA, it is highly likely that the increases in frataxin mRNA observed with polyamide FA1 are due to this structural transition.

[2] = system: GM15850 FRDA lymphoid cells; experiment: DNA microarray of global gene expression, FRDA cells; type: cell-based, human; details: for number of genes with affected mRNA levels: P≦0.005; for gene expression profile approaching that of untreated GM15851 cells, in words: FA1 at 1 μM, FA2 at 2 μM
Description: Effects of Polyamides on Global Gene Expression. DNA microarray analyses (see Example 10) were performed with RNA isolated from GM15850 FRDA and GM15851 normal lymphoid cells that were either untreated or treated with polyamides FA1 (at 1 and 2 μM) or FA2 (at 2 μM) for 7 days on Affymetrix Human Genome U133 Plus 2.0 GeneChips®. These chips contain […] oligonucleotides representing all or nearly all of the genes in the human genome). Experiments were conducted according to manufacturer guidelines. […] Although more genes were judged affected by FA1 at 1 μM than at 2 μM, this difference is largely due to genes whose mRNA levels change by less than […] in either direction, and thus are not highly significant. At 2 μM FA1, 15 genes were increased in expression by greater than 50% and one gene was decreased by 45%. […] For GM15851 cells, two genes were up regulated by FA1, and no genes were down regulated. (Note that the probability that the genes affected in GM15851 cells would be judged significant by chance at P≦0.005 is 0.8-1.0, based on analysis with BRB ArrayTools). […] Strikingly, binding sites for FA1 (5′-AAGAAGAAG-3′, SEQ ID NO: ______) are present in 18/20 genes whose mRNA levels are increased by 1.2-fold or greater in GM15850 cells, although this sequence would be expected to appear at random only once per 262,000 bp in genomic DNA.
DNA Microarrays. FRDA and control lymphoid cells (i.e., lines GM15850 and GM15851, respectively) were incubated with polyamides FA1 (at 1 or 2 μM) or FA2 (at 2 μM), or in the absence of polyamide, in triplicate for seven days prior to RNA purification and microarray analysis. Affymetrix U133A Plus 2.0 GeneChips® were hybridized in groups of eight for each of the three replicates. Raw GeneChip® data were normalized with RMAExpress (Bolstad et al., 2003, Bioinformatics 19:185-193) and the normalized data was filtered to remove probesets called absent on 24 of 24 chips from class comparisons. The Affymetrix probeset-level data was imported to BRB Arraytools (v3.3.0 Beta 3a) selecting the U133 chips used in the experiment and leaving all filters off. For class comparisons between groups of arrays, unpaired samples were used and the random variance model was selected, with the univariate significance threshold set to 0.005. The restrictions for the univariate test were maintained as the default values of 10 for the maximum number of false discovered genes, 0.1 for the maximum proportion of false discoveries, and a 90% confidence level. Because of poor data correlation in one set of replicates, class comparisons were performed using all chips for the control group versus two of the three replicates for the treatment group (i.e., five groups are the minimum number required for class comparisons).

[3] = target: GAA·TTC duplex repeats in the frataxin gene; radiolabeled PCR product containing a (GAA)6 sequence; experiment: Quantitative DNase I footprinting on (GAA)6 DNA; type: binding
Text: Targeting GAA Repeat DNA with Polyamides. β-Alanine linked polyamides FA1-FA6 were synthesized (see Example 6) with sequence, theoretical DNA binding site, theoretical DNA binding site SEQ ID NO: ______) and binding affinity as shown in Table 1. […] Those of skill in the art will recognize that this value may be an underestimation of the affinity of this molecule for GAA repeat DNA since the KD measurements are limited by a minimum DNA concentration of ˜2 pM in the binding reaction. Radiolabeling of nucleic acid incorporated γ^32P ATP and polynucleotide kinase used standard procedures.
Polyamlde Synthesis and Characterization. Polyamides were synthesized by solid phase methods (Urbach & Dervan, Id.; Baird & Dervan, 1996, J. Am. Chem. Soc. 118:6141-6146) and their identity and purity verified by MALDI-TOF MS and analytical HPLC, using methods well known in the art. Fluorescent conjugates were prepared by coupling BODIPY (Molecular Probes) to the carboxyl-terminus (Best et al., 2003, Proc. Natl. Acad. Sci. U.S.A. 100:12063-12068). Binding affinities for match and mismatch sites were determined by quantitative DNase I footprinting (Trauger & Dervan, Id). A plasmid harboring six GAA repeats was constructed by cloning the oligonucleotide
in the pCR2.1 TOPO vector (Invitrogen, Calif.), and a 117 bp singly end-labeled PCR product was generated from this plasmid with the following oligonucleotides:
where the second oligonucleotide was labeled with γ-^32P ATP and polynucleotide kinase, using standard procedures, to generate a PCR product labeled on the GAA strand. A 204 bp singly end-labeled PCR product was derived from plasmid pMP142 DNA, containing 33 GAA repeats (Ohshima et al., Id.), with following oligonucleotides: […]

[4] = (GAA)6 DNA, values in text, read-out: apparent dissociation constant (KD)
[5] = quantitative DNase I footprinting, mean and standard deviation, minimum of two determinations, read-out: Binding affinity (KD)

| SMILES | concentration needed to affect or dissociate sticky DNA [1] [µM] | genes with comparable changes (>50% increase or 45% decrease) in mRNA levels ([2]; 1 μM) | number of genes with affected mRNA levels ([2]; 1 μM, 7 days) [genes] | frataxin mRNA level as % of that found in GM15851 cells (microarray) ([2]; 2 μM) [%] | genes decreased in expression (by 45%) ([2]; 2 μM) | genes increased in expression by greater than 50% ([2]; 2 μM) [genes] | increase of frataxin mRNA (microarray) ([2]; 2 μM, 7 days) [fold] | number of genes with affected mRNA levels ([2]; 2 μM, 7 days) | slope of gene expression profile correlation vs untreated GM15851 cells ([2]; 2 μM, untreated FRDA cells 0.97) | gene expression profile approaching that of untreated GM15851 cells, in words [2] | Kd [3, 4] [nM] | Kd [3, 5] [nM] | transcript levels for frataxin (microarray) ([2]; 2 μM, 7 days) | reduction of binding affinity vs match polyamide ([3]; mismatch vs match polyamide (FA2 vs FA1, FA4 vs FA3)) |
| --- | --- | --- | --- | --- | --- | --- | --- | --- | --- | --- | --- | --- | --- | --- |
| CN(C)CCCNC(=O)CCNC(=O)c1nc(NC(=O)CCNC(=O)c2cc(NC(=O)c3nc(NC(=O)CCNC(=O)c4cc(NC(=O)c5nccn5C)cn4C)cn3C)cn2C)cn1C [FA1, ImPyβImPyβImβDp] | 1 | three genes | 51 | 42 | one gene | 15 | 2.5 | 16 genes | 0.69 | seen to a lesser degree | 0.1 | 0.11 ± 0.02 |  |  |
| CN(C)CCCNC(=O)CCNC(=O)c1cc(NC(=O)CCNC(=O)c2nc(NC(=O)c3nc(NC(=O)CCNC(=O)c4cc(NC(=O)c5nccn5C)cn4C)cn3C)cn2C)cn1C [FA2, ImPyβImImβPyβDp] | > 100 |  |  |  |  |  |  | three genes |  | not seen | > 100 | > 100 | not changed | greater than three orders of magnitude |
